Drawing on PubChem BioAssay AID200 (DTP/NCI, 2004), this text covers T/C for 15 compounds.

In the experiment the test system is B6C3F1 mice, B16 melanoma ip, median survival T/C. The experiment in a line: NCI In Vivo Anticancer Drug Screen. Data for tumor model B16 Melanoma (intraperitoneal) in B6C3F1 mice. The settings on record: endpoint: median survival time, higher = longer survival. In outline: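 Tumor-bearing mice received test compound; a separate group got vehicle only. Survival was then compared, with results reported as treated over control.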

Where [1] appears, read: dose: 25.0 mg/kg/injection, schedule: Q01DX009 (ip), vehicle: saline with Tween-80.
Where [2] appears, read: dose: 50.0 mg/kg/injection, schedule: Q01DX009 (ip), vehicle: saline with Tween-80.
Setting [3] is: dose: 100.0 mg/kg/injection, schedule: Q01DX009 (ip), vehicle: saline with Tween-80.
Setting [4] is: dose: 6.25 mg/kg/injection, schedule: Q01DX009 (ip), vehicle: saline.
Setting [5] is: dose: 12.5 mg/kg/injection, schedule: Q01DX009 (ip), vehicle: saline.
The mark [6] stands for this setting: dose: 3.12 mg/kg/injection, schedule: Q01DX009 (ip), vehicle: saline with Tween-80.
Setting [7] is: dose: 6.25 mg/kg/injection, schedule: Q01DX009 (ip), vehicle: saline with Tween-80.
The mark [8] stands for this setting: dose: 12.5 mg/kg/injection, schedule: Q01DX009 (ip), vehicle: saline with Tween-80.
The mark [9] stands for this setting: dose: 25.0 mg/kg/injection, schedule: Q01DX009 (ip), vehicle: saline.
The mark [10] stands for this setting: dose: 50.0 mg/kg/injection, schedule: Q01DX009 (ip), vehicle: saline.
Where [11] appears, read: dose: 25.0 mg/kg/injection, schedule: Q01DX009 (ip), vehicle: Klucel (hydroxypropylcellulose) (HPC).
Where [12] appears, read: dose: 50.0 mg/kg/injection, schedule: Q01DX009 (ip), vehicle: Klucel (hydroxypropylcellulose) (HPC).
Where [13] appears, read: dose: 100.0 mg/kg/injection, schedule: Q01DX009 (ip), vehicle: Klucel (hydroxypropylcellulose) (HPC).
Where [14] appears, read: dose: 12.5 mg/kg/injection, schedule: Q01DX009 (ip), vehicle: Klucel (hydroxypropylcellulose) (HPC).

The structures appear in SMILES notation. Values joined by “and” are separate entries in the source; they are usually repeats but may differ in a detail not shown here. Identical values can stand only once. Toxic doses and inconclusive results are not listed. *1 amine or outer side, *2 acyl side, *3 side chain or, on linkers, in order; H or OH if unused. Where a SMILES comes first, the peptide text is derived from it. Bridges are numbered along the chain shown (N, C = ends). Roman numbers before positions name the chains, in order. [ ]: non-standard residue; d: D form. Actinocin(1to9) = Cc1c2oc3c(C)ccc(C(=O)[*:2])c3nc-2c(C(=O)[*:1])c(N)c1=O; X1 = COC(=O)CCN(CC(=O)[*:2])[*:1]; NMeA = CN[CH](C)C(=O)O

On to `F[B-](F)(F)F`, for which the T/C (dose: 12.5 mg/kg/injection, schedule: Q01DX009 (ip), vehicle: gum acacia) was 99 % of control; the T/C (dose: 25.0 mg/kg/injection, schedule: Q01DX009 (ip), vehicle: gum acacia) was 118 % of control; the T/C (dose: 50.0 mg/kg/injection, schedule: Q01DX009 (ip), vehicle: gum acacia) is 100 % of control and 106 % of control; the T/C (dose: 100.0 mg/kg/injection, schedule: Q01DX009 (ip), vehicle: gum acacia) was 98 % of control and 106 % of control; the T/C (dose: 200.0 mg/kg/injection, schedule: Q01DX009 (ip), vehicle: gum acacia) was 108 % of control and 112 % of control; the T/C (dose: 400.0 mg/kg/injection, schedule: Q01DX009 (ip), vehicle: gum acacia) was 93 % of control and 99 % of control.
As for `Cc1ccc(N)c(N)c1`, the T/C runs as follows: under setting [1], 95 % of control; under setting [2], 99 % of control; under setting [3], 102 % of control; (dose: 200.0 mg/kg/injection, schedule: Q01DX009 (ip), vehicle: saline with Tween-80) 104 % of control.
Regarding `O=c1n(CC2CO2)c(=O)n(CC2CO2)n1CC1CO1` (stereo unspecified), the T/C (dose: 3.0 mg/kg/injection, schedule: Q01DX009 (ip), vehicle: saline) was 172 % of control; the T/C (dose: 6.0 mg/kg/injection, schedule: Q01DX009 (ip), vehicle: saline) was 212 % of control; the T/C under setting [4] was 183 % of control; the T/C (dose: 12.0 mg/kg/injection, schedule: Q01DX009 (ip), vehicle: saline) is 300 % of control; the T/C under setting [5] was 198 % of control.
Consider `S=C(N/N=C1/CCCC/C1=N/NC(=S)N1CCOCC1)N1CCOCC1`, for which the T/C is 124 % of control (dose: 1.56 mg/kg/injection, schedule: Q01DX009 (ip), vehicle: saline with Tween-80); 116 % of control under setting [6]; 119 % of control under setting [7].
Consider `CCC1CN2CCC3(C(=O)Nc4ccccc43)C2CC1/C(=C/OC)C(=O)OC` (stereo unspecified), for which the T/C was 90 % of control under setting [7], 108 % of control under setting [8], 93 % of control under setting [1] and 93 % of control under setting [2].
Turning to `CCOC(=O)C1=C(C#N)C2(CCC(OCc3ccccc3)CC2)C(=O)O1` (stereo unspecified), the T/C is 105 % of control under setting [5]; 105 % of control (dose: 12.5 mg/kg/injection, schedule: Q01DX009 (ip), vehicle: suspension in saline); 101 % of control under setting [9]; 96 % of control (dose: 25.0 mg/kg/injection, schedule: Q01DX009 (ip), vehicle: suspension in saline); 94 % of control under setting [10]; 107 % of control (dose: 50.0 mg/kg/injection, schedule: Q01DX009 (ip), vehicle: suspension in saline). Besides, the T/C was 111 % of control (dose: 100.0 mg/kg/injection, schedule: Q01DX009 (ip), vehicle: saline); 109 % of control (dose: 100.0 mg/kg/injection, schedule: Q01DX009 (ip), vehicle: suspension in saline); 107 % of control (dose: 200.0 mg/kg/injection, schedule: Q01DX009 (ip), vehicle: suspension in saline).
Consider `O=C1CN(Cc2ccc3c(c2)OCO3)NO1`, for which the T/C is 103 % of control and 106 % of control under setting [7]; 109 % of control and 95 % of control under setting [8]; 112 % of control and 107 % of control under setting [1]; 115 % of control and 117 % of control under setting [2]; 115 % of control under setting [3].
For `N=C(N)SCc1c2ccccc2c(CSC(=N)N)c2ccccc12`, the T/C under setting [4] is 156 % of control, the T/C under setting [5] was 181 % of control, the T/C under setting [9] was 228 % of control and the T/C under setting [10] is 320 % of control.
In the case of `CSc1nc(N)cc(NC(=O)CCl)n1`, the T/C is 102 % of control under setting [11], 100 % of control under setting [12] and 92 % of control under setting [13].
Regarding `COC(=O)CCN1CC(=O)N(C)C(C)C(=O)OC(C)C(NC(=O)c2c3nc4c(C(=O)NC5C(=O)NC(C(C)C)C(=O)N6CCCC6C(=O)N(CCC(=O)OC)CC(=O)N(C)C(C)C(=O)OC5C)ccc(C)c4oc-3c(C)c(=O)c2N)C(=O)NC(C(C)C)C(=O)N2CCCC2C1=O` (stereo unspecified) (I: TVP[X1][NMeA] / II: TVP[X1][NMeA]; ester I:1-I:C, II:1-II:C; linker I:N-II:N via Actinocin(1to9); configuration not given here), the T/C is, setting by setting: (dose: 0.25 mg/kg/injection, schedule: Q04DX003 (ip), vehicle: saline + alcohol) 109 % of control; (dose: 0.5 mg/kg/injection, schedule: Q04DX003 (ip), vehicle: saline + alcohol) 105 % of control; (dose: 1.0 mg/kg/injection, schedule: Q04DX003 (ip), vehicle: saline + alcohol) 98 % of control and 104 % of control; (dose: 2.0 mg/kg/injection, schedule: Q04DX003 (ip), vehicle: saline + alcohol) 118 % of control and 102 % of control; (dose: 4.0 mg/kg/injection, schedule: Q04DX003 (ip), vehicle: saline + alcohol) 114 % of control; (dose: 8.0 mg/kg/injection, schedule: Q04DX003 (ip), vehicle: saline + alcohol) 121 % of control.
In the case of `C=C(C)C12OC3(CCCCCCCCC)OC1C1C4OC4(COC(=O)CCCCCCCCCCCCCCC)C(O)C4(O)C(=O)C(C)=CC4C1(O3)C(C)C2OC(=O)c1ccccc1` (stereo unspecified), the T/C is, setting by setting: (dose: 5.0 micrograms/kg/injection, schedule: Q01DX009 (ip), vehicle: saline + alcohol) 96 % of control; (dose: 10.0 micrograms/kg/injection, schedule: Q01DX009 (ip), vehicle: saline + alcohol) 99 % of control; (dose: 20.0 micrograms/kg/injection, schedule: Q01DX009 (ip), vehicle: saline + alcohol) 86 % of control; (dose: 40.0 micrograms/kg/injection, schedule: Q01DX009 (ip), vehicle: saline + alcohol) 88 % of control.
As for `NC(CC(=O)CCl)C(=O)O` (stereo unspecified), the T/C reads like this: (dose: 6.25 mg/kg/injection, schedule: Q01DX009 (ip), vehicle: Klucel (hydroxypropylcellulose) (HPC)) 106 % of control; under setting [14], 101 % of control.
As for `NC(=O)c1ncn(C2OC(CO)C(O)C2O)c1O` (stereo unspecified), the T/C is, setting by setting: under setting [14], 102 % of control and 106 % of control; under setting [11], 102 % of control and 107 % of control; under setting [12], 98 % of control and 107 % of control; under setting [13], 96 % of control and 106 % of control; (dose: 200.0 mg/kg/injection, schedule: Q01DX009 (ip), vehicle: Klucel (hydroxypropylcellulose) (HPC)) 97 % of control and 102 % of control; (dose: 400.0 mg/kg/injection, schedule: Q01DX009 (ip), vehicle: Klucel (hydroxypropylcellulose) (HPC)) 90 % of control.
Regarding `CS(=O)(=O)c1ncc(Br)cn1`, the T/C under setting [6] was 100 % of control; the T/C (dose: 3.13 mg/kg/injection, schedule: Q01DX009 (ip), vehicle: saline with Tween-80) is 101 % of control; the T/C under setting [7] was 99 % of control and 105 % of control; the T/C under setting [8] was 98 % of control and 106 % of control; the T/C under setting [1] was 96 % of control and 104 % of control; the T/C under setting [2] is 109 % of control and 97 % of control. Besides, the T/C under setting [3] was 100 % of control and 104 % of control.
Take `CC(C)(C)C1CCCCC1`: the T/C was 97 % of control under setting [14], 92 % of control under setting [11] and 88 % of control under setting [12].
